The target of one data set is hERG potassium channel (Homo sapiens, UniProt Q12809). The data set can be described thus: Inhibition test of hERG potassium channel (QPatch, CHO-hERG cells). The method, then:
CHO-hERG cells (from Shanghai Institute of Materia Medica, Chinese Academy of Sciences) were cultured in a 175 cm^2 culture flask. When the cell density reached 60% to 80%, the culture medium was removed, the cells were washed once with 7 mL of PBS, and then 3 mL of Detachin was added for cell detachment. After complete cell detachment, 7 mL of culture medium were added for neutralization, the mixture was then centrifuged, the supernatant was aspirated, and another 5 mL of culture medium was added for re-suspension, so as to ensure that the cell density was 2×10^6/mL to 5×10^6/mL.
The single-cell giga-seal and the formation of whole-cell mode were both completed automatically by a Q patch instrument. After a whole-cell recording mode was achieved, the cells were clamped at −80 mV, exposed to a front voltage of −50 mV for 50 ms prior to a depolarizing stimulus (5 s, +40 mV), and then repolarized to −50 mV for 5 s, followed by a recovery to −80 mV. This voltage stimulation was applied every 15 s and recorded for 2 minutes, and the extracellular fluid was then administered, followed by a record lasting for 5 minutes. Thereafter, the administration process was started. Starting from the lowest test concentration, the compounds were administered at each test concentration and the process lasted for 2.5 minutes. […] At least 3 cells (n≥3) were tested at each concentration.
20 mM stock solution of the compound was diluted with the extracellular fluid, and 5 μL of the 20 mM stock solution of the compound was taken, added to 2495 μL of the extracellular fluid, and diluted by 500 times to 40 μM. Thereafter, the resulting mixture was serially and successively diluted by 3 times in an extracellular fluid containing 0.2% DMSO, so as to obtain a final concentration to be tested.
The experimental data was analyzed by XLFit software.
A general note: hERG is a cardiac potassium channel; its block is linked to QT prolongation.

Another data set addresses T1, RORC2-LBD (Homo sapiens, UniProt P51449).
T1 sequence (P51449 269-508 limits assumed): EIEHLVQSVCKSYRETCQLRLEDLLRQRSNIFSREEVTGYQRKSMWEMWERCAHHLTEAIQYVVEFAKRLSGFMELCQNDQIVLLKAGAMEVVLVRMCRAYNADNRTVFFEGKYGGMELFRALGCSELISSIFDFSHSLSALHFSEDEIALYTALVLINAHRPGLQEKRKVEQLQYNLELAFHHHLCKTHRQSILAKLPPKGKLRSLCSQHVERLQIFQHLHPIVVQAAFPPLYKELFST
The data set can be described thus: In vitro test for inhibitory activity on RORγ: TR-FRET screening (RORC2-LBD / SRC1 peptide interaction). It is filed as biochemical. To be noted: Value of the concentration required for 50% inhibition (EC50) of RORγ, 15 nM RORc-LBD, 200 nM SRC1 peptide, 4° C. overnight. The source says:
The compounds of the present application was able to regulate (inhibit) the bioactivity of the nuclear receptor RORγ, and the strength of this regulatory (inhibitory) effect could be evaluated by a TR-FRET (time-resolved fluorescence resonance energy transfer) screening system. Nuclear receptor cofactors (co-activators and co-inhibitors) could regulate the transcription of a target gene by the interaction with nuclear receptors. If a ligand (test compound) affected the interaction between the nuclear receptors and the cofactors, this ligand (test compound) was able to regulate the transcription of the corresponding gene.
This method adopted the TR-FRET (time-resolved fluorescence resonance energy transfer) technique to determine the ability of a compound to regulate the interaction between the polypeptide indirectly bound to APC […] (namely, APC was indirectly bound to the polypeptide by binding to Streptavidin and biotin) and RORC2-LBD linked to a europium (Eu)-labeled anti-His antibody (Perkin Elmer #AD0111). In the absence of the compound, RORC2 could bind to an APC-modified polypeptide. If the compound was an agonist, it could enhance the interaction between RORC2 and the APC-modified polypeptide after binding to RORC2. On the contrary, if the compound was an inverse agonist, it could inhibit the interaction between RORC2 and the APC-modified polypeptide after binding to RORC2. When the APC-modified polypeptide and the Eu-labeled anti-His antibody-RORC2-LBD complex approached to each other and the distance therebetween was within a certain distance, energy transfer could occur and a TR-FRET signal was generated.
A buffer solution comprising 50 mM Tris (pH 7.0), 50 mM KCl, 1 mM Na-EDTA, 0.01% BSA (0.1 mg/ml), and 0.1 mM DTT was freshly formulated prior to the experiment.
2.3 Formulation of a RORγ-containing working solution. Prior to the test, a working solution containing 1.67 nM Eu/anti-His and 0.75 μl/well of SF9 cell lysate was freshly formulated, and was placed on ice before use. 25.05 nM of RORγ was added to the working solution.
2.5 Ten concentration gradients were set for each test compound, and duplicate wells were set for each concentration. The formulating method of the test compounds was as follows: […]
2) 15 μl of the RORγ-containing working solution was added to columns 1 to 21 of the tested 384-well plate (the final concentration of Eu/anti-His was 1 nM, and the final concentration of RORg was 15 nM); and […]
9) data analysis was performed using the ratio of the numerical value detected at an emission wavelength of 665 nm to the numerical value detected at an emission wavelength of 615 nm. […]

The values below come from US11466024B2, “Bicylic compound acting as an inhibitor” (CHIA TAI TIANQING PHARMACEUTICAL GROUP CO., LTD., priority 2017, dated 2022).

hERG potassium channel, sequence (Q12809 whole entry): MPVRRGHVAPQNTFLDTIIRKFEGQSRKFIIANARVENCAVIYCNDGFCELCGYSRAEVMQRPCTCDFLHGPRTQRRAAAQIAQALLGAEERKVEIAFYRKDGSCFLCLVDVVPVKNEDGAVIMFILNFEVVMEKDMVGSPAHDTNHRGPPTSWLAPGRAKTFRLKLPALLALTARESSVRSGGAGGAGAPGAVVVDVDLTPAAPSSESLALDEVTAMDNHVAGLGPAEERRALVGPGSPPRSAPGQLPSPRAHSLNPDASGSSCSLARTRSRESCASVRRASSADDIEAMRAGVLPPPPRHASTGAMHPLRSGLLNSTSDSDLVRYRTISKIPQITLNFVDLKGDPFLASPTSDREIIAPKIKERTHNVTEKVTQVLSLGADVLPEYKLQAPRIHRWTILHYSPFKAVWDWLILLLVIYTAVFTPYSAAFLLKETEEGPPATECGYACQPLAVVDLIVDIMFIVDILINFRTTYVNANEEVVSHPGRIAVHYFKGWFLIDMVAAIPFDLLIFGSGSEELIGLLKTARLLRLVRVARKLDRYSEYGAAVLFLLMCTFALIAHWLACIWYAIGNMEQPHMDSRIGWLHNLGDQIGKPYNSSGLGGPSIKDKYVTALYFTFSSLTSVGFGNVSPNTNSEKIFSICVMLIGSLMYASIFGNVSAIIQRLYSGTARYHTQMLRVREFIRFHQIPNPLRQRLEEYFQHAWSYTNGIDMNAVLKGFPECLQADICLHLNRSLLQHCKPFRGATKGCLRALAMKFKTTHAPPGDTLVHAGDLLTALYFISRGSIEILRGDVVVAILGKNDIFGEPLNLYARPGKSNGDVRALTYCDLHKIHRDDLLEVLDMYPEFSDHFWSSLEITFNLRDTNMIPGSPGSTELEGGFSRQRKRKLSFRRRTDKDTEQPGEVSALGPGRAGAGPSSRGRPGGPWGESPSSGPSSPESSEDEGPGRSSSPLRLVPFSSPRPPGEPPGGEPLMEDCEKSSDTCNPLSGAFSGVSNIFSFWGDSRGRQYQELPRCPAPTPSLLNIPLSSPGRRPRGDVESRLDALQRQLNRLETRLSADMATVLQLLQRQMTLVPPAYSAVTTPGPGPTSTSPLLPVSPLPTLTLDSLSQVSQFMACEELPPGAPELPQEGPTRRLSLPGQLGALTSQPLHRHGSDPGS

As usually defined, the IC50 is the concentration that inhibits the measured activity by half. A lower IC50 goes with inhibition by little substance. The inhibition is the change of the read-out against control, counted positive when it falls. A low value points to a response near the control. As a reminder, the EC50 is the concentration at which the effect is half-maximal. For `CCS(=O)(=O)c1ccc(CNC(=O)c2cc3c(s2)C(C(C)C)N(C[C@H]2CC[C@H](C(F)(F)F)CC2)C3)nc1` (single isomer, unassigned) [Example 1], the IC50 at hERG potassium channel was more than 40 µM. The molecule also gave an inhibition at 2.5 min, 40 μM at hERG potassium channel (human) of 26.3%. This molecule had an EC50 on RORC2-LBD of less than 0.1 µM.
